Measurements: publication PMC11393688, “Design and synthesis of new 1,2,4-oxadiazole/quinazoline-4-one hybrids with antiproliferative activity as multitargeted inhibitors” (Frontiers in Chemistry, 2024)

Key:
BRAF^V600E = target: T1, BRAF^V600E (Homo sapiens, UniProt P15056, V600E); experiment: BRAF^V600E kinase inhibitory assay; type: biochemical, Mouse; settings: read-out: BRAF^V600E inhibition IC50 ± SEM
T1 construct: Mouse full-length GST-tagged BRAFV600E; GST; purchased Invitrogen PV3849
Description: Refer to Supplementary Appendix A for more details. […]
4.2.1.4. BRAF kinase assay […]
against BRAF. Mouse full-length GST-tagged BRAFV600E (7.5 ng, Invitrogen, PV3849) was pre-incubated with drug (1 µL) and assay dilution buffer (4 µL) for 60 min at 25 °C. In assay dilution buffer, a solution (5 µL) containing MgCl2 (30 mM), ATP (200 µM), recombinant human full length (200 ng) […] N-terminal His-tagged MEK1 (Invitrogen) was added to start the assay, subsequent to incubation for 25 min at 25 °C. The assay was stopped using 5X protein denaturing buffer (LDS) solution (5 µL). To further denature the protein, heat (70° C) was applied for 5 min.
10 µL of each reaction was loaded into the precast plates and electrophoresis was allowed to proceed. After completion of electrophoresis, the front part of the precast gel plate (holding hot ATP) was cut and afterwards cast-off. The dried gel was developed using a phosphor screen. A […]
served as positive control. […]
(FITC) and propidium iodide (PI) staining kit (BD Pharmingen, San Diego, USA). […]
4.3. Statistical analysis
Computerized Prism 5 program was used to statistically analyzed data using one-way ANOVA test followed by Tukey’s as post ANOVA for multiple comparison at P ≤.05. Data were presented

A-549 cells [1] = experiment: Apoptosis induction assay, Annexin V/PI flow cytometry; type: cell-based, human; settings: A-549, Annexin V/PI, 24 h
Description: To assess 9b′s potential to induce apoptosis, A-549 cells were labeled with Annexin V/PI, grown for 24 h, and evaluated.
Compound 9b was investigated for its effects on cell cycle progression and apoptosis induction in A-549 cells. […] The cell line was labeled with PI/Annexin V, and flow cytometry was done with a BD FASC Caliber ([El-Sherief et al., 2018]). See Supplementary Appendix A for more details. […]
served as positive control. To study the effect of compounds on cell-based pERK1/2 activity in cancer cells, commercially available ELISA kits (Invitrogen) were used according to manufacturer’s instructions.
4.2.1.6. Cell apoptosis assay
Apoptosis was determined by flow cytometry based on the Annexin-V-fluoresce in isothiocyanate (FITC) and propidium iodide (PI) staining kit (BD Pharmingen, San Diego, USA).
(FITC) and propidium iodide (PI) staining kit (BD Pharmingen, San Diego, USA). Apoptotic cells were defined as Annexin-V-positive. Cells were grown to approximately ∼70% confluence and exposed to different concentrations of compounds (0, 2, 4, 6 and8 μmol/L) for 24 h. […] Subsequently, cells were analyzed by flow cytometry (Becton Dickinson, Franklin Lakes, and USA). […]
Computerized Prism 5 program was used to statistically analyzed data using one-way ANOVA test followed by Tukey’s as post ANOVA for multiple comparison at P ≤.05. […]

[2] = system: colon cancer (HT-29) cell line; experiment: Antiproliferative MTT assay, HT-29; type: cell-based; settings: Homo sapiens, HT-29 colon cancer cells, read-out: Antiproliferative activity IC50 ± SEM HT-29
A-549 cells [3] = experiment: Cell cycle analysis by flow cytometry; type: cell-based, human; settings: A-549, IC50 concentration, 24 h
Excerpt: Compound 9b was investigated for its effects on cell cycle progression and apoptosis induction in A-549 cells. […] The cell line was labeled with PI/Annexin V, and flow cytometry was done with a BD FASC Caliber ([El-Sherief et al., 2018]).
Compound 9b was investigated for its effects on cell cycle progression and apoptosis induction in A-549 cells. […] The cell line was labeled with PI/Annexin V, and flow cytometry was done with a BD FASC Caliber ([El-Sherief et al., 2018]). See Supplementary Appendix A for more details.

EGFR = target: T2, EGFR (Homo sapiens, UniProt P00533); experiment: EGFR-TK inhibitory assay; type: biochemical; settings: read-out: EGFR inhibition IC50 ± SEM
T2 construct: amino acids 645–1186; His6 (N); made in house; host or cells: Sf-9 insect cells (baculovirus; pBlueBacHis2B / pFASTBacHTc)
T2 sequence (P00533 669-1210): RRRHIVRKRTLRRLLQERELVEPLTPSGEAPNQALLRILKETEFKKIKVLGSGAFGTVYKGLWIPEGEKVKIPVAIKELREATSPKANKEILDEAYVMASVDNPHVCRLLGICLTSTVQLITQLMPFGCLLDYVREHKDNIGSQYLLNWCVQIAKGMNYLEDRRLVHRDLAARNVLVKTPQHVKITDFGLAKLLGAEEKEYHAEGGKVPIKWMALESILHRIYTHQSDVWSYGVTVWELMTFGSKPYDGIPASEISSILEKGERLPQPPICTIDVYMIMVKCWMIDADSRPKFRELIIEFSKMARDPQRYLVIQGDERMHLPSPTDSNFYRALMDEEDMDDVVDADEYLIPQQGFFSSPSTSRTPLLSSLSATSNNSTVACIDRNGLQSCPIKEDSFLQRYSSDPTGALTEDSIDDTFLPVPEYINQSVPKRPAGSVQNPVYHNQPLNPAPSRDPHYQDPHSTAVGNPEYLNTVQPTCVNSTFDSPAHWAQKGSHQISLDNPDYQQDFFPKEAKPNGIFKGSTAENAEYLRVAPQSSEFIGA
Description: 4.2.1.3. EGFR inhibitory assay
Sf-9 cells were infected for 72h for protein expression. […]
centrifugation for 20 min.
Histidine-linked proteins were first eluted with 250 and then […]
using wash buffer. Europium-tagged antiphosphotyrosine antibody (75 µL, 400 ng) was added to each well followed by incubation of 1h and then washing of the plates using buffer. The enhancement solution was added to each well and the signal was recorded at excitation and […]
The autophosphorylation percentage inhibition by compounds was calculated using the following equation: […]
(1 picture or pasted object on this page, not shown here)

[4] = system: pancreatic cancer (Panc-1) cell line; experiment: Antiproliferative MTT assay, Panc-1; type: cell-based; settings: Homo sapiens, Panc-1 pancreatic cancer cells, read-out: Antiproliferative activity IC50 ± SEM Panc-1
Description: 4.2.1.2. Assay for antiproliferative effect
To explore the antiproliferative potential of compounds MTT assay was performed according to previously reported procedure using different cell lines to explore the antiproliferative potential of […]
calculate the total nuclear DNA, a fluorescent dye (propidium iodide, PI) is used which can attach to the DNA, thus offering a quick and precise technique. PI cannot pass through the cell membrane and its signal intensity can be considered as directly proportional to quantity of cellular DNA.
Cells whose cell membranes are damaged or have changed permeability are counted as dead ones.
The assay was performed by seeding the cells of different cell lines at a density of 3000-7500 cells/well (in 200µl medium) in culture plates followed by incubation for 24h at 37 °C in humidified 5% CO2/95% air atmospheric conditions. The medium was removed; the compounds were added to the plates at 10 µM concentrations (in 0.1% DMSO) in triplicates, followed by incubation for 48 h. DMSO (0.1%) was used as control. After incubation, medium was removed […]
80 °C, the plates were allowed to freeze for 24 h, followed by thawing at 25 °C. […]
(Polar-Star BMG Tech) was used to record the readings at excitation and emission wavelengths of 530 and 620 nm for each well. The percentage cytotoxicity of compounds was calculated using […]
Where ATC= Absorbance of treated cells and AC= Absorbance of control. Erlotinib was used as positive control in the assay.

T1 sequence (P15056 2-766 V600E limits assumed): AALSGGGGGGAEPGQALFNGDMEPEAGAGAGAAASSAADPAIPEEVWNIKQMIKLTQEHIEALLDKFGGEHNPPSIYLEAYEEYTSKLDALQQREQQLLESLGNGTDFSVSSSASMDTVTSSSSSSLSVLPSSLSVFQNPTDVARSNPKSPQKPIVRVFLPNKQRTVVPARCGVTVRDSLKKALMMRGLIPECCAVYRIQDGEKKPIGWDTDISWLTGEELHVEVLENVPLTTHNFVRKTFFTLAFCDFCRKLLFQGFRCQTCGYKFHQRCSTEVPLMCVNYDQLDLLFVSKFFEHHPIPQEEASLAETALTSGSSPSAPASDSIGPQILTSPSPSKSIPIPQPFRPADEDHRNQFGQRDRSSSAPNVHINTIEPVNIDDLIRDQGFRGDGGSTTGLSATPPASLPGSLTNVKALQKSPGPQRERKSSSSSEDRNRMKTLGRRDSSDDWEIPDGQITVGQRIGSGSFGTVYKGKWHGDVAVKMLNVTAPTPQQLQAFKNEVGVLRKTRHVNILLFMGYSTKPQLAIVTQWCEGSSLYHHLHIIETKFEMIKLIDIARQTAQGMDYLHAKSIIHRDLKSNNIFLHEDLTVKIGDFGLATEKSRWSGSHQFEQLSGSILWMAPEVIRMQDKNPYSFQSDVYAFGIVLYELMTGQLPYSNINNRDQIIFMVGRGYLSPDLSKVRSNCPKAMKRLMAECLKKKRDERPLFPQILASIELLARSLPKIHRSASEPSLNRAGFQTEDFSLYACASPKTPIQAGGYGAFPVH

IC50 (BRAF^V600E): 48 ± 4 nM
IC50 [2]: 24 ± 2 nM
IC50 (EGFR): 57 ± 4 nM
IC50 [4]: 24 ± 2 nM
Compound: O=c1c2ccccc2nc(SCc2nc(-c3ccc(Cl)cc3)no2)n1-c1ccccc1 [Compound 9b, 2-((3-(4-Chlorophenyl)-1,2,4-oxadiazol-5-yl)methylthio)-3 phenylquinazolin-4(3H)-one]
Necrosis percentage (A-549 cells [1]): 6.43%
Effect on cell cycle (A-549 cells [3]): cell cycle arrest at the G2/M transition
